pIC50: −log10 of the molar value.
The compounds below were run against T1, recombinant Escherichia coli LpxC enzyme (rLpxC) (Escherichia coli, UniProt P0A725) (assay: Inhibition of recombinant Escherichia coli LpxC enzyme activity (LC-MS)). Conditions: 37°C, 30 minutes reaction, substrate UDP-3-O (R-hydroxytetradecanoyl)-N-acetylglucosamine.
T1 sequence (P0A725 1-305): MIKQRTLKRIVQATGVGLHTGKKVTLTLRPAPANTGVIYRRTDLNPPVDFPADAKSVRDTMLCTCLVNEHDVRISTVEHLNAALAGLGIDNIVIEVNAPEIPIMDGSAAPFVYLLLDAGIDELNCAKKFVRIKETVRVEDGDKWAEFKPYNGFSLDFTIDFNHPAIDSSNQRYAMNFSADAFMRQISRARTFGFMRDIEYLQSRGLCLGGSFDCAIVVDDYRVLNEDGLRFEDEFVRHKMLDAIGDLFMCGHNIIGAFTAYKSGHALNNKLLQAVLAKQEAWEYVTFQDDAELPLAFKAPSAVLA
Type: biochemical
Procedure: Preparation of recombinant Escherichia coli LpxC enzyme (rLpxC). 2 µL of recombinant Escherichia coli LpxC enzyme (6.29 mg/mL) was added to 18 µL of distilled water. After thorough mixing, 2 µL of this mixture was added to 1042.4 µL of distilled water and mixed well to prepare a 36 nM working solution.
The substrate was UDP-3-O (R-hydroxytetradecanoyl)-N-acetylglucosamine, with UDP-α-D-N-Acetylglucosamine Disodium Salt as the internal standard. Mobile phase A: 90% water-10% acetonitrile containing 10 mM ammonium acetate; B: acetonitrile.
Reaction system: Corresponding solutions were prepared as per the table below, and placed in a 37°C metal bath, and mixed at 300 rpm for 10 minutes. After mixing for 10 minutes, 10 µl of 250 µM substrate was added to each group to initiate the reaction, and placed in a 37°C metal bath and reacted at 300 rpm for 30 minutes.
Termination solution: 1.1 µL of 1 mM internal standard was added to 2 mL of acetonitrile. 1.5 mL of EP tubes were taken and 100 µL of termination solution was added to each EP tube. The concentration of the internal standard in the final 350 µL system is 100 ng/mL.
Detection: 10 µL of reaction solution was added to 100 µL of the termination solution in an EP tube, mixed thoroughly, and then 240 µL of distilled water was added and mixed well, centrifuged at 14,000 rpm for 5 minutes. 70 µL of supernatant was transferred to an LC-MS vial and API 6500 Qtrap LC-MS system was used to measure substrates and metabolites. The median inhibition concentrations (IC50) of the four optical isomers and ACHN-975 against rLpxC enzyme were calculated. Table 4 Inhibitory activity of 4 optical isomers and control drug against recombinant Escherichia coli LpxC enzyme
For `COCC1CC1C#CC#Cc1ccc(C(=O)NC(C(=O)NO)C(C)(C)N)cc1` (mixture of isomers) [Ia/Ib racemate], the pIC50 was 8.99.
For `CC(C)(N)[C@H](NC(=O)c1ccc(C#CC#C[C@@H]2C[C@H]2CO)cc1)C(=O)NO` [ACHN-975], the pIC50 was 8.97.
`CO[C@H]1CCC[C@@H]1C#CC#Cc1ccc(C(=O)N[C@H](C(=O)NO)C(C)(C)N)cc1` [A] showed a pIC50 of 8.33.
Compound `COC[C@@H]1C[C@H]1C#CC#Cc1ccc(C(=O)N[C@H](C(=O)NO)C(C)(C)N)cc1` [Ia, N-(S)-3-amino-1-hydroxyamino-3-methyl-1-oxobutan-2-yl-4-[[(1R,2R)-2-(methoxymethylene)cyclopropyl]but-1,3-diynyl]benzamide] has a pIC50 of 8.97.
`COC[C@H]1C[C@@H]1C#CC#Cc1ccc(C(=O)N[C@H](C(=O)NO)C(C)(C)N)cc1` [Ib, N-(S)-3-amino-1-hydroxyamino-3-methyl-1-oxobutan-2-yl-4-[[(1S,2S)-2-(methoxymethylene)cyclopropyl]but-1,3-diynyl]benzamide] gave a pIC50 of 9.07.
Work on `COC[C@H]1C[C@H]1C#CC#Cc1ccc(C(=O)N[C@H](C(=O)NO)C(C)(C)N)cc1` [Ic, N-(S)-3-amino-1-hydroxyamino-3-methyl-1-oxobutan-2-yl-4-[[(1R,2S)-2-(methoxymethylene)cyclopropyl]but-1,3-diynyl]benzamide] yielded a pIC50 of 9.04.
Compound `COC[C@@H]1C[C@@H]1C#CC#Cc1ccc(C(=O)N[C@H](C(=O)NO)C(C)(C)N)cc1` [Id, N-(S)-3-amino-1-hydroxyamino-3-methyl-1-oxobutan-2-yl-4-[[(1S,2R)-2-(methoxymethylene)cyclopropyl]but-1,3-diynyl]benzamide] has a pIC50 of 9.05.

Source: patent EP4745118A1, “HYDROXAMIC ACID COMPOUND OR PHARMACEUTICALLY ACCEPTABLE SALT THEREOF, AND USE THEREOF AND PREPARATION METHOD THEREFOR” (priority 2023, dated 2025)
